Laboratory results as given in patent US7544691B2, “Guanidine derivatives” (Actelion Pharmaceuticals, Ltd., priority 2004, dated 2009).
pIC50: −log10 of the molar value.

Target: T1, NPFF1 receptor (Homo sapiens, UniProt Q9GZQ6)
T1 construct: expressed in transfected cells; host or cells: Chinese Hamster Ovary cells, CHOSP10 (membranes)
Test: NPFF receptor binding test (displacement of 125I-Tyr1-NPFF from CHOSP10 cell membranes)
Details: membranes of CHOSP10 cells producing NPFF1 receptor; 0.2 nM 125I-Tyr1-NPFF; 90 minutes at room temperature
Procedure: Compounds of Formula I were examined in the following test for their affinity to the NPFF receptors: Hamster cells suitable for neuropeptide FF receptor-binding studies (Chinese Hamster Ovary cells, CHOSP10) which in each case produce the NPFF1 or NPFF2 receptor, were multiplied in standard cell-culture conditions. The cell-culture medium was sucked out and 5 ml of buffer A (5 mM Tris pH=7.4, 1 mM MgCl2) added per 17 cm Petri dish. The cells were scraped off the cell-culture plate and transferred into a 50 ml Falcon vessel. The cells were then centrifuged for 5 minutes at 450 g, resuspended in buffer A once again and mixed for 30 seconds on a Polytron Vortexer. After centrifugation at 30,000 g for 20 minutes the supernatant was discarded and the membrane pellet taken up in 500 μl buffer C (75 mM Tris pH=7.4, 25 mM MgCl2, 250 mM sucrose, 0.1 mM PMSF, 0.1 mM phenanthroline). The membrane-buffer mixture was then divided into aliquots and deep-frozen. The protein content of an aliquot was determined by the Lowry method. The binding test was carried out in a final volume of 250 μl. 100 μl membrane-buffer mixture corresponding to 35 μg protein content was mixed with 95 μl binding buffer (50 mM Tris pH 7.4, 60 mM NaCl, 0.1% protease-free BSA, 0.01% NaN3). After addition of 5 μl of a concentration of test substance per measurement point in each case, 0.2 nM ^125I-Tyr1-NPFF (NEN, NEX381) per measurement point was added in 50 μl. After 90 minutes' incubation at room temperature the samples were sucked out through a GF/C filter (Millipore ([…]60)) and the filter was washed with ice cold binding buffer with 3 times 300 μl (Packard Filtermate). After addition of 55 μl Microscint 40 (Packard 6013641) scintillation fluid the measurement points were quantified in the gamma counter (Packard, Top Count NXT). Non-specific binding was ascertained in the presence of 1 μM unmarked neuropeptide FF. Specific binding is defined as the difference between total and non-specific binding. IC50 values are defined as that concentration of the antagonist which displaces 50% of the ^125I-marked neuropeptide FF. This concentration is ascertained by linear regression analysis after logit/log-transformation of the binding values.

T1 sequence (Q9GZQ6 whole entry): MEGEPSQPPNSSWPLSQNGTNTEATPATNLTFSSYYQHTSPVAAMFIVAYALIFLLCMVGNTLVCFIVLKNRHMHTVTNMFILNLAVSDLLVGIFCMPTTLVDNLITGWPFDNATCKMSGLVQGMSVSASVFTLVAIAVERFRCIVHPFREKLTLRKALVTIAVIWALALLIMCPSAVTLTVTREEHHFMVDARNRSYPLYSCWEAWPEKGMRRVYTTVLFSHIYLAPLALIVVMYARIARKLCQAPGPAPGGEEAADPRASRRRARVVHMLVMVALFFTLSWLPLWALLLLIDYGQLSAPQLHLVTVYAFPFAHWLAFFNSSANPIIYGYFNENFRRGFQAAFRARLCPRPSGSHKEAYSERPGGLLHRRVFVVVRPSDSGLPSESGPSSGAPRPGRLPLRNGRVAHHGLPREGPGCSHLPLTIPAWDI

Compound | pIC50
Cc1nc(NC(=N)N)nc2c1C(C)CCC2 (racemic) [N-(4,5-dimethyl-5,6,7,8-tetrahydro-quinazolin-2-yl)-guanidine] | 8.15
Cc1nc(NC(=N)N)nc2c1CC(C)CC2 (racemic) [N-(4,6-dimethyl-5,6,7,8-tetrahydro-quinazolin-2-yl)-guanidine] | 7.32
Cc1nc(NC(=N)N)nc2c1CCCCCC2 (racemic) [N-(4-methyl-5,6,7,8,9,10-hexahydro-cyclooctapyrimidin-2-yl)-guanidine] | 7.22
Cc1nc(NC(=N)N)nc2c1CCCC2 (racemic) [N-(4-methyl-5,6,7,8-tetrahydro-quinazolin-2-yl)-guanidine] | 8.40
Cc1nc(NC(=N)N)nc2c1CCCCC2 (racemic) [N-(4-methyl-6,7,8,9-tetrahydro-5H-cycloheptapyrimidin-2-yl)-guanidine] | 7.27
Cc1nc(NC(=N)N)nc2c1CC(c1ccccc1)CC2 (racemic) [N-(4-methyl-6-phenyl-5,6,7,8-tetrahydro-quinazolin-2-yl)-guanidine] | 7.80
CCCC1CCc2nc(NC(=N)N)nc(C)c2C1 (racemic) [N-(4-methyl-6-propyl-5,6,7,8-tetrahydro-quinazolin-2-yl)-guanidine] | 9.00
Cc1nc(NC(=N)N)nc2c1CCCC2c1ccccc1 (racemic) [N-(4-methyl-8-phenyl-5,6,7,8-tetrahydro-quinazolin-2-yl)-guanidine] | 7.80
Cc1nc(NC(=N)N)nc2c1CC(C(C)C)CC2 (racemic) [N-(6-isopropyl-4-methyl-5,6,7,8-tetrahydro-quinazolin-2-yl)-guanidine] | 8.70
Cc1nc(NC(=N)N)nc2c1CC(C(C)(C)C)CC2 (racemic) [N-(6-tert-butyl-4-methyl-5,6,7,8-tetrahydro-quinazolin-2-yl)-guanidine] | 8.10
CCC(C)C1CCCc2c(C)nc(NC(=N)N)nc21 (racemic) [N-(8-sec-butyl-4-methyl-5,6,7,8-tetrahydro-quinazolin-2-yl)-guanidine] | 7.14
Cc1nc(NC(=N)N)nc2c1CCCC2C(C)(C)C (racemic) [N-(8-tert-butyl-4-methyl-5,6,7,8-tetrahydro-quinazolin-2-yl)-guanidine] | 7.41
CCC(C)(C)C1CCc2nc(NC(=N)N)nc(C)c2C1 (racemic) [N-[6-(1,1-dimethyl-propyl)-4-methyl-5,6,7,8-tetrahydro-quinazolin-2-yl]-guanidine] | 7.72
